Assay results from ChEMBL document CHEMBL2176881, “Development of N-[4-[6-(isopropylamino)pyrimidin-4-yl]-1,3-thiazol-2-yl]-N-methyl-4-[11C]methylbenzamide for positron emission tomography imaging of metabotropic glutamate 1 receptor in monkey brain” (J Med Chem, 2012).

Legend:
[1] = Metabolic stability in Sprague-Dawley plasma assessed as unchanged drug level at 37 MBq/0.1 mL, iv after 30 mins; format: ADME, organism-based; settings: rat, read-out: Stability
Brain [2] = experiment: Drug uptake in monkey brain at 185 to 220 MBq, iv after 10 to 60 mins by PET analysis in presence of unlabeled 4-(6-chloropyrimidin-4-yl)-N-methylthiazol-2-amine; format: ADME, organism-based, Macaca mulatta; settings: rhesus monkey, in vivo
Mus musculus [3] = species: Mus musculus; experiment: Biodistribution in ddY mouse large intestine at 4.8 MBq/0.1 mL after 1 min by gamma counting; format: ADME, organism-based; settings: in vivo
Blood [4] = experiment: Biodistribution in ddY mouse blood at 4.8 MBq/0.1 mL after 60 mins by gamma counting; format: ADME, organism-based; settings: in vivo, 1 h
Mus musculus [5] = species: Mus musculus; experiment: Biodistribution in ddY mouse testis at 4.8 MBq/0.1 mL after 1 min by gamma counting; format: ADME, organism-based; settings: in vivo
Kidney [6] = experiment: Biodistribution in ddY mouse kidney at 4.8 MBq/0.1 mL after 90 mins by gamma counting; format: ADME, organism-based; settings: in vivo, 1.5 h
Heart [7] = experiment: Biodistribution in ddY mouse heart at 4.8 MBq/0.1 mL after 30 mins by gamma counting; format: ADME, organism-based; settings: in vivo, 0.5 h
Kidney [8] = experiment: Biodistribution in ddY mouse kidney at 4.8 MBq/0.1 mL after 15 mins by gamma counting; format: ADME, organism-based; settings: in vivo, 0.25 h
Muscle tissue [9] = experiment: Biodistribution in ddY mouse muscle at 4.8 MBq/0.1 mL after 5 mins by gamma counting; format: ADME, organism-based; settings: in vivo
Pancreas [10] = experiment: Biodistribution in ddY mouse pancreas at 4.8 MBq/0.1 mL after 90 mins by gamma countingeas; format: ADME, organism-based; settings: in vivo, 1.5 h
Heart [11] = experiment: Biodistribution in ddY mouse heart at 4.8 MBq/0.1 mL after 5 mins by gamma counting; format: ADME, organism-based; settings: in vivo
Hippocampus [12] = experiment: Drug uptake in monkey hippocampus at 185 to 220 MBq, iv after 10 mins by PET analysis; format: ADME, organism-based, Macaca mulatta; settings: rhesus monkey, in vivo
[13] = Metabolic stability in Sprague-Dawley brain assessed as unchanged drug level at 37 MBq/0.1 mL, iv after 15 mins; format: ADME, organism-based; settings: rat, read-out: Stability
Lung [14] = experiment: Biodistribution in ddY mouse lung at 4.8 MBq/0.1 mL after 60 mins by gamma counting; format: ADME, organism-based; settings: in vivo, 1 h
Mus musculus [15] = species: Mus musculus; experiment: Biodistribution in ddY mouse large intestine at 4.8 MBq/0.1 mL after 5 mins by gamma counting; format: ADME, organism-based; settings: in vivo
Brain [16] = experiment: Biodistribution in ddY mouse brain at 4.8 MBq/0.1 mL after 30 mins by gamma counting; format: ADME, organism-based; settings: in vivo, 0.5 h
Mus musculus [17] = species: Mus musculus; experiment: Biodistribution in ddY mouse small intestine at 4.8 MBq/0.1 mL after 1 min by gamma counting; format: ADME, organism-based; settings: in vivo
Mus musculus [18] = species: Mus musculus; experiment: Biodistribution in ddY mouse small intestine at 4.8 MBq/0.1 mL after 60 mins by gamma counting; format: ADME, organism-based; settings: in vivo, 1 h
[19] = Drug uptake in monkey putamen assessed as distribution volume ratio at 185 to 220 MBq, iv after 10 to 90 mins by PET analysis; format: ADME, organism-based, Macaca mulatta; settings: rhesus monkey, in vivo
[20] = Drug uptake in monkey cingulate cortex assessed as distribution volume ratio at 185 to 220 MBq, iv after 10 to 90 mins by PET analysis; format: ADME, organism-based, Macaca mulatta; settings: rhesus monkey, in vivo
Liver [21] = experiment: Biodistribution in ddY mouse liver at 4.8 MBq/0.1 mL after 15 mins by gamma counting; format: ADME, organism-based; settings: in vivo, 0.25 h
Liver [22] = experiment: Biodistribution in ddY mouse liver at 4.8 MBq/0.1 mL after 30 mins by gamma counting; format: ADME, organism-based; settings: in vivo, 0.5 h
[23] = Metabolic stability in monkey plasma assessed as unchanged drug level at 185 MBq/0.1 mL, iv after 5 mins; format: ADME, organism-based, Macaca mulatta; settings: rhesus monkey, read-out: Stability
[24] = Metabolic stability in Sprague-Dawley plasma assessed as unchanged drug level at 37 MBq/0.1 mL, iv after 5 mins; format: ADME, organism-based; settings: rat, read-out: Stability
Muscle tissue [25] = experiment: Biodistribution in ddY mouse muscle at 4.8 MBq/0.1 mL after 60 mins by gamma counting; format: ADME, organism-based; settings: in vivo, 1 h
Pancreas [26] = experiment: Biodistribution in ddY mouse pancreas at 4.8 MBq/0.1 mL after 30 mins by gamma countingeas; format: ADME, organism-based; settings: in vivo, 0.5 h
[27] = Metabolic stability in Sprague-Dawley brain assessed as unchanged drug level at 37 MBq/0.1 mL, iv after 30 mins; format: ADME, organism-based; settings: rat, read-out: Stability
Hippocampus [28] = experiment: Drug uptake in monkey hippocampus assessed as distribution volume ratio at 185 to 220 MBq, iv after 10 to 90 mins by PET analysis; format: ADME, organism-based, Macaca mulatta; settings: rhesus monkey, in vivo
[29] = Drug uptake in monkey cerebellum assessed as distribution volume ratio at 185 to 220 MBq, iv after 10 to 90 mins by PET analysis; format: ADME, organism-based, Macaca mulatta; settings: rhesus monkey, in vivo
Muscle tissue [30] = experiment: Biodistribution in ddY mouse muscle at 4.8 MBq/0.1 mL after 1 min by gamma counting; format: ADME, organism-based; settings: in vivo
[31] = Drug uptake in monkey caudate at 185 to 220 MBq, iv after 10 mins by PET analysis; format: ADME, organism-based, Macaca mulatta, Caudate nucleus; settings: rhesus monkey, in vivo
Lung [32] = experiment: Biodistribution in ddY mouse lung at 4.8 MBq/0.1 mL after 15 mins by gamma counting; format: ADME, organism-based; settings: in vivo, 0.25 h
Lung [33] = experiment: Biodistribution in ddY mouse lung at 4.8 MBq/0.1 mL after 1 min by gamma counting; format: ADME, organism-based; settings: in vivo
[34] = Drug uptake in monkey caudate assessed as distribution volume ratio at 185 to 220 MBq, iv after 10 to 90 mins by PET analysis; format: ADME, organism-based, Macaca mulatta, Caudate nucleus; settings: rhesus monkey, in vivo
[35] = Metabolic stability in Sprague-Dawley brain assessed as unchanged drug level at 37 MBq/0.1 mL, iv after 5 mins; format: ADME, organism-based; settings: rat, read-out: Stability
Blood [36] = experiment: Biodistribution in ddY mouse blood at 4.8 MBq/0.1 mL after 30 mins by gamma counting; format: ADME, organism-based; settings: in vivo, 0.5 h
Kidney [37] = experiment: Biodistribution in ddY mouse kidney at 4.8 MBq/0.1 mL after 1 min by gamma counting; format: ADME, organism-based; settings: in vivo
Mus musculus [38] = species: Mus musculus; experiment: Biodistribution in ddY mouse small intestine at 4.8 MBq/0.1 mL after 30 mins by gamma counting; format: ADME, organism-based; settings: in vivo, 0.5 h
[39] = Drug uptake in monkey thalamus at 185 to 220 MBq, iv after 10 to 60 mins by PET analysis; format: ADME, organism-based, Macaca mulatta; settings: rhesus monkey, in vivo
Mus musculus [40] = species: Mus musculus; experiment: Biodistribution in ddY mouse testis at 4.8 MBq/0.1 mL after 30 mins by gamma counting; format: ADME, organism-based; settings: in vivo, 0.5 h
Liver [41] = experiment: Biodistribution in ddY mouse liver at 4.8 MBq/0.1 mL after 1 min by gamma counting; format: ADME, organism-based; settings: in vivo
[42] = Drug uptake in monkey thalamus at 185 to 220 MBq, iv after 20 mins by PET analysis; format: ADME, organism-based, Macaca mulatta; settings: rhesus monkey, in vivo
Brain [43] = experiment: Drug uptake in monkey brain at 185 to 220 MBq, iv after 10 to 60 mins by PET analysis in presence of unlabeled N-[4-[6-(Isopropylamino)pyrimidin-4-yl]-1,3-thiazol-2-yl]- N,4-dimethylbenzamide; format: ADME, organism-based, Macaca mulatta; settings: rhesus monkey, in vivo
Spleen [44] = experiment: Biodistribution in ddY mouse spleen at 4.8 MBq/0.1 mL after 30 mins by gamma counting; format: ADME, organism-based; settings: in vivo, 0.5 h
Mus musculus [45] = species: Mus musculus; experiment: Biodistribution in ddY mouse small intestine at 4.8 MBq/0.1 mL after 5 mins by gamma counting; format: ADME, organism-based; settings: in vivo
Mus musculus [46] = species: Mus musculus; experiment: Biodistribution in ddY mouse testis at 4.8 MBq/0.1 mL after 5 mins by gamma counting; format: ADME, organism-based; settings: in vivo
Spleen [47] = experiment: Biodistribution in ddY mouse spleen at 4.8 MBq/0.1 mL after 5 mins by gamma counting; format: ADME, organism-based; settings: in vivo
Brain [48] = experiment: Biodistribution in ddY mouse brain at 4.8 MBq/0.1 mL after 1 min by gamma counting; format: ADME, organism-based; settings: in vivo

In the case of CC(C)Nc1cc(-c2csc(N(C)C(=O)c3ccc([14CH3])cc3)n2)ncn1, the remaining at 0.5 h [1] is reported as 39%, the Drug uptake (Brain [2]) is reported as “Not Active” and the Drug uptake (Mus musculus [3]) is reported as 1.28 % ID/g. For the same molecule, the Drug uptake (Blood [4]) was 0.05 % ID/g, the Drug uptake (Mus musculus [5]) was 1.07 % ID/g and the Drug uptake (Kidney [6]) was 0.11 % ID/g. The Drug uptake (Heart [7]) was 0.09 % ID/g, the Drug uptake (Kidney [8]) was 1.32 % ID/g and the Drug uptake (Muscle tissue [9]) was 0.96 % ID/g. For the same molecule, the Drug uptake (Pancreas [10]) was 0.04 % ID/g, the Drug uptake (Heart [11]) was 1.28 % ID/g and the Drug uptake (Hippocampus [12]) was “Active”. The remaining at 0.25 h [13] was 95.2%, the Drug uptake (Lung [14]) was 0.2 % ID/g and the Drug uptake (Mus musculus [15]) was 1.03 % ID/g. For the same molecule, the Drug uptake (Brain [16]) was 1.59 % ID/g, the Drug uptake (Mus musculus [17]) was 10.07 % ID/g and the Drug uptake (Mus musculus [18]) was 17.46 % ID/g. For the same molecule, the Ratio [19] was 1.5, the Ratio [20] was 2.6 and the Drug uptake (Liver [21]) was 4.89 % ID/g. It also gave a Drug uptake (Liver [22]) of 1.43 % ID/g, a remaining at 5 min [23] of 70.2% and a remaining at 5 min [24] of 67.9%. It also gave a Drug uptake (Muscle tissue [25]) of 0.07 % ID/g, a Drug uptake (Pancreas [26]) of 0.06 % ID/g and a remaining at 0.5 h [27] of 97%. The Ratio (Hippocampus [28]) was 1.8, the Ratio [29] was 4.3 and the Drug uptake (Muscle tissue [30]) was 2.59 % ID/g. For the same molecule, the Drug uptake [31] was “Active”, the Drug uptake (Lung [32]) was 0.86 % ID/g and the Drug uptake (Lung [33]) was 5.48 % ID/g. The Ratio [34] was 1.5, the remaining at 5 min [35] was 94% and the Drug uptake (Blood [36]) was 0.14 % ID/g. The Drug uptake (Kidney [37]) was 11.12 % ID/g, the Drug uptake (Mus musculus [38]) was 16.53 % ID/g and the Drug uptake [39] was “Active”. It also gave a Drug uptake (Mus musculus [40]) of 0.22 % ID/g, a Drug uptake (Liver [41]) of 11.47 % ID/g and an SUV [42] of 0.8. The Drug uptake (Brain [43]) was “Not Active”, the Drug uptake (Spleen [44]) was 0.07 % ID/g and the Drug uptake (Mus musculus [45]) was 66.76 % ID/g. For the same molecule, the Drug uptake (Mus musculus [46]) was 0.63 % ID/g, the Drug uptake (Spleen [47]) was 0.93 % ID/g and the Drug uptake (Brain [48]) was 2.19 % ID/g.
